# Assay results published in patent US20080305102A1, “Therapeutic Agent for Cancer Comprising Substance Capable of Inhibiting Expression or Function of Synoviolin as Active Ingredient and Screening Method for the Therapeutic Agent for Cancer” (priority 2005, published 2008).
# Assays:
# [1] = system: phosphorylation of Ser15 of p53 (ATM and ATR); assay: p53 Ser15 phosphorylation in RKO cells treated with synoviolin siRNA, with or without caffeine (Western blotting); assay type: cell-based, human; conditions: caffeine 10 mM, both 12 h and 24 h after the addition, FIG. 5
# Description: RKO cells (human colon cancer cells), which had been confirmed to express wild-type p53, were seeded on a 60 mm plate at 1.0×10^5 cells/plate/2 mL), and were transfected with siRNA oligonucleotides against GFP and synoviolin, using Oligofectamine. After 72 h, caffeine (10 mM), an inhibitor of ATM (ataxia-telangiectasia mutated) and ATR (an ATM and Rad3-related), which are important in the phosphorylation of […], was added. Then, Western blotting was performed using Phospho-p53 ([…]), an antibody to the phosphorylated […]-p53.
# [2] = system: T1, synoviolin (MBP-Syno ΔTM-His), substrate GST-p53 (Homo sapiens); assay: in vitro ubiquitination reaction of GST-p53 by MBP-Syno ΔTM-His (Western blot, anti-p53 FL393); assay type: biochemical; conditions: 75, 150, 300 or 600 μM compound; FIG. 17B
# T1 construct: GST-SynoΔTM 236-617:pGEX-5-1/S ΔTM; His tag (C); made in house; host or cells: E. coli
# Description: E. coli (BL21) hosting pGEX/p53 was cultured in 500 mL of LB medium. After induction with IPTG (1 mM at 30° C. for 6 h), an extract was prepared from the culture solution, using buffer containing 0.5% NP-40. From the E. coli extract, GST-p53 was purified using a GSH-Sepharose resin in the presence of 0.1% NP-40. […] After the reaction, proteins were separated by 7.5% SDS-PAGE, and transferred onto a PVDF membrane, prior to detection of the p53 protein on the membrane using anti-p53 antibodies (FL393 or DO-1). Reaction and detection were performed with variations in the amount of GST-p53 added.
# In the presence of GST-p53, varying concentrations (75 μM, 150 μM, 300 μM, or 600 μM) of compounds X and Y were added to the in vitro ubiquitination reaction system using MBP-Syno ΔTM-His. After reaction, proteins were separated by 7.5% SDS-PAGE, transferred onto a PVDF membrane, and then detected using the anti-p53 antibody FL393 (Santa Cruz Biotechnology).
# [3] = system: rheumatoid arthritis synovial cells (RASCs); assay: suppression of RASC proliferation (MTT); assay type: cell-based; conditions: Synovial cell, after 72 h of culture, FIGS. 23 and 24, read-out: IC50, RASC cell survival
# Description: The low molecular weight compounds termed No. 32 (Compound X) and No. 38 (Compound Y) were used as specimens. HFLS-RA medium (Cell Applications Inc.; Code CA40405) was used for RASC. RASCs were seeded in a 96-well microtiter plate at 1,000 cells/well, and cultured for 24 h in DMEM containing 10% fetal bovine serum (Kohjin Bio). Then, twofold serial dilutions of the specimens, beginning from a final concentration of 50 μM, were added to the cells. After 1, 24, and 48 h, 3-(4,5-dimethylthiazol-2-yl)-2,5-diphenyltetrazoliumbromide (MTT) was added to a final concentration of 0.5 mg/mL. After 2 h, the medium was aspirated, and the remaining formazan was dissolved with 50 μL of dimethyl sulfoxide. Then, absorbances at […] were measured. The absorbances of the group treated with the specimens were used to calculate cell survival rates, with 0% representing the absorbance of the group without cells or specimen, and 100% representing the absorbance of the group without specimen.
# RKO cells = assay: cytotoxicity / cell survival rate in RKO cells (WST-8); assay type: cell-based, human; conditions: cultured 24-72 h with compound, FIG. 18
# Description: RKO cells (a human colon carcinoma cell line; ATCC: CRL-2577) were seeded in Eagle's Minimum Essential Medium containing 10% fetal bovine serum in a 96-well microtiter plate (Falcon; non-coated) at 1,000 cells/100 μL/well, and cultured for 24 h. Compounds X and Y were dissolved in Eagle's Minimum Essential Medium containing 10% fetal bovine serum, and 10 μL amounts were added to wells. The cells were then cultured for 24-72 h.
# After culture, WST-8 (2-(2-methoxy-4-nitrophenyl)-3-(4-nitrophenyl)-5-(2,4-disulfophenyl)-2H-tetrazolium, monosodium salt) was added to each well. After 2-4 h, absorbances at 450 nm were measured (reference wavelength: […]) and cell survival rates were calculated (FIG. 18).
# The calculation method was based on the following formula: […]
# p53 protein = p53 protein expression level in RKO cells (Western blotting); assay type: cell-based, human; conditions: 5, 10 or 20 μM, 24 h, FIG. 19
# Description: Fractions of homogenized cells were prepared from various cells using a cell homogenizing solution (50 mM Tris-HCl [pH 8.0], 150 mM NaCl, 1% NP40, 1 mM PMSF, 0.1% sodium dodecyl sulfate (SDS), 2 μg/mL leupeptin, 2 μg/mL aprotinin, and 2 μg/mL pepstatin). Then, fractions of homogenized cells were separated by SDS-PAGE. After SDS-PAGE, the cell-derived proteins were transferred onto a nitrocellulose (NC) membrane by an electroblotting method. This NC membrane was blocked with Tris buffered saline (TBS) with 5% skim milk at room temperature for 1 h, and then immunoreacted with anti-p53 antibody C-terminal aa; 195-393 or FL393, both of which were diluted in TBS with 5% skim milk, at room temperature for 1 h. The NC membrane after reaction was washed with 0.1% Tween 20/TBS, and then immunoreacted with horse radish peroxidase (HRP)-labeled anti-rabbit IgG antibody as secondary antibody, at room temperature for 1 h. The membrane was washed with 0.1% Tween 20/TBS, and HRP activity was sought to detect the target antigen. An ECL kit (Amersham) was used to detect HRP activity […]).
# RKO cells were treated with compound Y, and changes in p53 protein expression level were examined by Western blotting. Specifically, RKO cells were seeded in 10 cm plates at 5.0×10^5 cells/plate, and cultured for 24 h. […]
# synoviolin and p53 mRNA = assay: mRNA levels of synoviolin and p53 in RASCs under synoviolin RNAi (TaqMan); assay type: cell-based; conditions: 25 nM siRNA, cultured 4 d, 18S rRNA as control, FIG. 14
# Description: RASCs were seeded on a 10 cm dish at 30,000 cells/dish, and were transfected with 25 nM of siRNA (No. 589) according to a routine method. The cells were then cultured for 4 d. During this period, cells were collected overtime to obtain mRNA. Random primers were used, with 1 μg of mRNA as a template, to perform reverse transcription reactions, and cDNAs were obtained. The obtained cDNAs were quantified using the ABI TaqMan Gene expression assay (GEX). The mRNA levels were calculated using 18S rRNA as control.
# The GEX reagent target assay no. (Assay ID) is Hs00381211_m1 for synoviolin and Hs00153340_m1 for p53.
# RA synovial cells = assay: cell cycle of RA synovial cells after synoviolin siRNA (flow cytometer); assay type: cell-based; conditions: 25 nM siRNA, FIG. 7
# Description: RA synovial cells were seeded on a 10 cm dish at 9.0×10^4 cells/dish, and were transfected with synoviolin siRNA (final concentration 25 nM). Then, the cell cycle was monitored by flow cytometer.
# T1 sequence (Q86TM6 236-617 E545G): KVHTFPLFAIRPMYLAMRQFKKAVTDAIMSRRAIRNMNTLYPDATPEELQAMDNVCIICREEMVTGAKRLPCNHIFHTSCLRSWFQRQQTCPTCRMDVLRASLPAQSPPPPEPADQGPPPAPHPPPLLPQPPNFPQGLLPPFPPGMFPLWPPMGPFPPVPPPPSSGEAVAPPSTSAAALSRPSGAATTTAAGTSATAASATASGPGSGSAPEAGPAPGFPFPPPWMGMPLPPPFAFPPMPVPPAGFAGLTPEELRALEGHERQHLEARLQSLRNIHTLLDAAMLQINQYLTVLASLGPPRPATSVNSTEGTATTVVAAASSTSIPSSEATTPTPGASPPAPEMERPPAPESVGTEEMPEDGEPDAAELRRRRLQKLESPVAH
Molecule,inhibition of the GST-p53 ubiquitination reaction [2],IC50 [3] [µM],cell proliferation / cell survival rate of RKO cells (RKO cells),further results
Cn1c(=O)c2c(ncn2C)n(C)c1=O [caffeine],–,–,–,inhibition of the siRNA-enhanced phosphorylation of p53 Ser15 [1]: completely inhibited
COc1ccc(/C=N/Nc2nc(Nc3ccc([N+](=O)[O-])cc3)nc(N3CCN(C)CC3)n2)cc1OC [compound X],inhibited the GST-p53 ubiquitination reaction in a concentration-dependent manner,20,cell proliferation was suppressed,–
CN(C)c1nc(N/N=C/c2cc([N+](=O)[O-])ccc2O)nc(Nc2ccc(F)cc2)n1 [compound Y],inhibited the GST-p53 ubiquitination reaction in a concentration-dependent manner,~6,cell proliferation was suppressed,p53 protein expression level (p53 protein): increased
h589: double-stranded RNA in which sense strand SEQ ID NO: 18 and antisense strand SEQ ID NO: 19 are annealed; synoviolin siRNA (sense GGUGUUCUUUGGGCAACUGTT; antisense CAGUUGCCCAAAGAACACCTT; chemistry not given here),–,–,–,level of p53 mRNA (synoviolin and p53 mRNA): unchanged; level of synoviolin mRNA (synoviolin and p53 mRNA): decreased; cell cycle (RA synovial cells): delay in the cell cycle at the G0/G1 phase
